Reference: patent US9707305B2, “Formulas for diagnosing and treating hormone-dependent cancers and cancers of the organs responsible for steroid hormone synthesis” (Commissariat à l'énergie atomique et aux énergies …, priority 2011, dated 2017)

How the values were obtained:
[1] = Biodistribution of the mixture of three free tracers (not formulated as nano-emulsion), comparative; type: in vivo; details: FVB female mouse
Method: (§1) In the following examples, the radioactivity was counted with the TRiCarb Counter (Ref: Packard, Liquid Scintillation Analyzers; Models 2200CA).
(§2) Fluobeam 700 (Fluoptics) is the apparatus with which the whole of the organs from the biodistribution were analyzed in fluorescence as well as the one with which the biodistribution kinetics of the nano-emulsions were established in vivo. This imaging system allows viewing of the fluorescence in spectral bands from 700 to 850 nm for a 650 nm excitation. The apparatus consists of an electric case containing the laser of class 3B, its power supply and an optical head containing the CCD camera.
(§3) As a comparison, a mixture of three tracers ([3H]CHE, [14C]CO and DiD) (not formulated as a nano-emulsion) was injected in order to observe the distribution of the tracers in the absence of droplets being used as a distribution carrier.

[2] = Biodistribution of the nano-emulsion of Example 1.1 (radioactivity and fluorescence per organ); type: in vivo
Method: as §1, §2
as §3, with “The nano-emulsions of Example 1 were injected into FVB female and male mice. As” for “As”
Tables 6 to 14 provide the biodistribution results of each tracer ([3H]CHE, [14C]CO and DiD) expressed as a percentage of the dose injected per gram of tissue (or [3H]CHE and [14C]CO) or as fluorescence intensity (for DiD) depending on the organ of the mouse, 15 minutes (Table 6), 2 hours (Table 7), 4 hours (Table 8), 6 hours (Table 9), 16 hours (Table 10), 24 hours (Table 11), 72 hours (Table 12), 120 hours (Table 13) and 168 hours (Table 14), after injection into an FVB female mouse of the nano-emulsion of Example 1.1. (nano-emulsion according to the invention comprising the three tracers ([3H]CHE, [14C]CO and DiD).

[3] = 2 h after injection of free tracers (not nano-emulsion)
[4] = 6 h after injection of free tracers (not nano-emulsion)
[5] = 16 h after injection of free tracers (not nano-emulsion)
[6] = 24 h after injection of free tracers (not nano-emulsion)
[7] = 15 min after injection of nano-emulsion of Example 1.1, FVB female mouse
[8] = 2 h after injection of nano-emulsion of Example 1.1, FVB female mouse

biodistribution, Adrenal glands (MEAN) [1, 3]: 3.25 % of injected dose per gram of
biodistribution, Brain (MEAN) [1, 3]: 0.23 % of injected dose per gram of
biodistribution, Fat (MEAN) [1, 3]: 0.69 % of injected dose per gram of
biodistribution, Heart (MEAN) [1, 3]: 0.59 % of injected dose per gram of
biodistribution, Intestine (MEAN) [1, 3]: 0.76 % of injected dose per gram of
biodistribution, Kidney (MEAN) [1, 3]: 0.89 % of injected dose per gram of
biodistribution, Liver (MEAN) [1, 3]: 4.79 % of injected dose per gram of
biodistribution, Lung (MEAN) [1, 3]: 72.86 % of injected dose per gram of
biodistribution, Muscle (MEAN) [1, 3]: 0.38 % of injected dose per gram of
biodistribution, Ovary (MEAN) [1, 3]: 1.57 % of injected dose per gram of
biodistribution, Pancreas (MEAN) [1, 3]: 0.47 % of injected dose per gram of
biodistribution, Salivary gland (MEAN) [1, 3]: 0.74 % of injected dose per gram of
biodistribution, Spleen (MEAN) [1, 3]: 3.65 % of injected dose per gram of
biodistribution, Uterus (MEAN) [1, 3]: 0.49 % of injected dose per gram of
biodistribution, Adrenal glands (MEAN) [1, 4]: 3.56 % of injected dose per gram of
biodistribution, Brain (MEAN) [1, 4]: 0.26 % of injected dose per gram of
biodistribution, Fat (MEAN) [1, 4]: 1.05 % of injected dose per gram of
biodistribution, Heart (MEAN) [1, 4]: 1.21 % of injected dose per gram of
biodistribution, Intestine (MEAN) [1, 4]: 1.21 % of injected dose per gram of
biodistribution, Kidney (MEAN) [1, 4]: 1.36 % of injected dose per gram of
biodistribution, Liver (MEAN) [1, 4]: 5.53 % of injected dose per gram of
biodistribution, Lung (MEAN) [1, 4]: 142.66 % of injected dose per gram of
biodistribution, Muscle (MEAN) [1, 4]: 0.53 % of injected dose per gram of
biodistribution, Ovary (MEAN) [1, 4]: 2.12 % of injected dose per gram of
biodistribution, Pancreas (MEAN) [1, 4]: 0.76 % of injected dose per gram of
biodistribution, Salivary gland (MEAN) [1, 4]: 1.15 % of injected dose per gram of
biodistribution, Spleen (MEAN) [1, 4]: 3.53 % of injected dose per gram of
biodistribution, Uterus (MEAN) [1, 4]: 0.46 % of injected dose per gram of
biodistribution, Adrenal gland (MEAN) [1, 5]: 4.24 % of injected dose per gram of
biodistribution, Brain (MEAN) [1, 5]: 0.30 % of injected dose per gram of
biodistribution, Fat (MEAN) [1, 5]: 1.39 % of injected dose per gram of
biodistribution, Heart (MEAN) [1, 5]: 1.87 % of injected dose per gram of
biodistribution, Intestine (MEAN) [1, 5]: 1.09 % of injected dose per gram of
biodistribution, Kidney (MEAN) [1, 5]: 1.82 % of injected dose per gram of
biodistribution, Liver (MEAN) [1, 5]: 11.86 % of injected dose per gram of
biodistribution, Lung (MEAN) [1, 5]: 261.87 % of injected dose per gram of
biodistribution, Muscle (MEAN) [1, 5]: 0.43 % of injected dose per gram of
biodistribution, Ovary (MEAN) [1, 5]: 1.64 % of injected dose per gram of
biodistribution, Pancreas (MEAN) [1, 5]: 1.00 % of injected dose per gram of
biodistribution, Salivary gland (MEAN) [1, 5]: 1.29 % of injected dose per gram of
biodistribution, Spleen (MEAN) [1, 5]: 5.32 % of injected dose per gram of
biodistribution, Uterus (MEAN) [1, 5]: 1.00 % of injected dose per gram of
biodistribution, Adrenal gland (MEAN) [1, 6]: 2.60 % of injected dose per gram of
biodistribution, Brain (MEAN) [1, 6]: 0.22 % of injected dose per gram of
biodistribution, Fat (MEAN) [1, 6]: 1.64 % of injected dose per gram of
biodistribution, Heart (MEAN) [1, 6]: 0.82 % of injected dose per gram of
biodistribution, Intestine (MEAN) [1, 6]: 0.81 % of injected dose per gram of
biodistribution, Kidney (MEAN) [1, 6]: 1.02 % of injected dose per gram of
biodistribution, Liver (MEAN) [1, 6]: 3.29 % of injected dose per gram of
biodistribution, Lung (MEAN) [1, 6]: 29.91 % of injected dose per gram of
biodistribution, Muscle (MEAN) [1, 6]: 0.79 % of injected dose per gram of
biodistribution, Ovary (MEAN) [1, 6]: 1.40 % of injected dose per gram of
biodistribution, Pancreas (MEAN) [1, 6]: 0.95 % of injected dose per gram of
biodistribution, Salivary gland (MEAN) [1, 6]: 0.86 % of injected dose per gram of
biodistribution, Spleen (MEAN) [1, 6]: 2.27 % of injected dose per gram of
biodistribution, Uterus (MEAN) [1, 6]: 0.62 % of injected dose per gram of
accumulation of the free radioactive tracers in the lungs ([1]; Tables 2 to 5 (2 to 24 h), free tracers): strong accumulation
biodistribution, Adrenal glands (MEAN) [2, 7]: 10.18 % of injected dose per gram of
biodistribution, Brain (MEAN) [2, 7]: 0.499 % of injected dose per gram of
biodistribution, Fat (MEAN) [2, 7]: 1.15 % of injected dose per gram of
biodistribution, Heart (MEAN) [2, 7]: 8.676 % of injected dose per gram of
biodistribution, Intestine (MEAN) [2, 7]: 1.75 % of injected dose per gram of
biodistribution, Kidney (MEAN) [2, 7]: 4.20 % of injected dose per gram of
biodistribution, Liver (MEAN) [2, 7]: 8.86 % of injected dose per gram of
biodistribution, Lung (MEAN) [2, 7]: 3.92 % of injected dose per gram of
biodistribution, Muscle (MEAN) [2, 7]: 0.744 % of injected dose per gram of
biodistribution, Ovary (MEAN) [2, 7]: 4.59 % of injected dose per gram of
biodistribution, Pancreas (MEAN) [2, 7]: 1.262 % of injected dose per gram of
biodistribution, Salivary glands (MEAN) [2, 7]: 1.057 % of injected dose per gram of
biodistribution, Spleen (MEAN) [2, 7]: 3.58 % of injected dose per gram of
biodistribution, Uterus (MEAN) [2, 7]: 0.93 % of injected dose per gram of
biodistribution, Adrenal glands (MEAN) [2, 8]: 18.50 % of injected dose per gram of
biodistribution, Brain (MEAN) [2, 8]: 0.29 % of injected dose per gram of
biodistribution, Fat (MEAN) [2, 8]: 3.85 % of injected dose per gram of
biodistribution, Heart (MEAN) [2, 8]: 4.41 % of injected dose per gram of
biodistribution, Intestine (MEAN) [2, 8]: 2.33 % of injected dose per gram of
biodistribution, Kidneys (MEAN) [2, 8]: 3.91 % of injected dose per gram of
biodistribution, Liver (MEAN) [2, 8]: 19.41 % of injected dose per gram of
SMILES: CCCCCCCC/C=C\CCCCCCC[14C](=O)O[C@H]1CC[C@@]2(C)C(=CC[C@H]3[C@@H]4CC[C@H]([C@H](C)CCCC(C)C)[C@@]4(C)CC[C@@H]32)C1 [[14C]CO, cholesteryl oleate]
